Marks after values point to notes of the source that are not given here.

Here are results for 4 compounds from patent EP0414931B1, “Hypotensive agent” (TANABE SEIYAKU CO., LTD., priority 1989, dated 1991).

Experiment [1] relates to SHR. Kind of experiment: Hypotensive activity in SHR by single administration of test compound (tail-cuff method). In kind it is in vivo, rats. Particulars: SHR about 40 weeks old, fasted overnight; for rate of change of the blood pressure: 200 mg/kg orally, single dose, 2 hours after administration against before administration; for decrease of the systolic blood pressure: 200 mg/kg orally once, 2 hours after administration in comparison with before administration. On the procedure:
The phenoxyacetic acid derivatives (I) and pharmaceutically acceptable salts thereof, which are the active ingredient for use in the preparation of the hypotensive agent have an excellent hypotensive activity.
A suspension of a test compound in water containing a small amount of Tween 80 was administered orally in a volume of 1 ml/100 g of rat's weight (a dose of the test compound: 200 mg/kg) to SHR (about 40 weeks old, 4 to 6 rats/group) fasted overnight. The blood pressure before and after administration of the test compound were measured noninvasively by the tail-cuff method, and estimated the rate of the change of the blood pressure 2 hours after administration of the test compound against the blood pressure before administration of the test compound. In both of test compound No. (1) and No. (2), the rate of change of the blood pressure was about -13 %.

Another experiment has as its system DOCA-salt rats. Kind of experiment: Antihypertensive activity on progressive hypertension in DOCA-salt rats (tail-cuff method). In kind it is in vivo, male SD rats. Particulars: for Systolic blood pressure: 50 mg/kg/day orally once a day for 4 weeks. How it is done: (§1) A left kidney was taken out from male SD rats (6 weeks old, weight; about 200 g, 10 rats/group), and 1 week later, silicon resin containing 150 mg/kg of deoxycorticosterone acetic acid (DOCA) was embedded in subcutaneous tissue at the back of each rat under ether anesthesia. After operation, the rats were provided with water containing 1 % sodium chloride and 0.2 % potassium chloride as drinking water in order to produce DOCA-salt rats. From the next day after operation of embedding the silicon resin containing DOCA, a suspension of the test compound (I) in water containing a small amount of Tween 80 was administered orally in a volume of 10 ml/kg (a dose of the test compound: 50 mg/kg/day) once a day for 4 weeks in the test compound-administered group. On the other hand, the same amount of water containing a small amount of the Tween 80 was administered in the control group instead of the suspension of the test compound (1). The systolic blood pressure of rats in the both groups was measured once a week until the fourth week by the tail-cuff method.

Experiment [2] concerns SHR. Kind of experiment: Antihypertensive activity in SHR, repeated administration (tail-cuff method). The note with it: for Systolic blood pressure: SHR 5 weeks old. In kind it is in vivo, rats. On the procedure: (§2) A suspension of the test compound (1) in water containing a small amount of Tween 80 was administered orally in a volume of 10 ml/kg (a dose of the test compound: 100 mg/kg/day) once a day for 4 weeks to SHR (5 weeks old, weight; about 100 g, 10 rats/group) in the test compound-administered group. On the other hand, the same amount of water containing a small amount of Tween 80 was administered to the rats in control group instead of the suspension of the test compound (1). The systolic blood pressure of rats of the both groups was measured once a week until the fifth week by the tail-cuff method.

A further experiment has as its system established-SHR. Description: Antihypertensive activity in SHR in the established hypertension condition (tail-cuff method). In kind it is in vivo, rats. The note with it: for Systolic blood pressure: 100 mg/kg/day orally once a day for 3 weeks, established-SHR 18 weeks old. How it is done:
as §2
Using the SHR being in the established hypertension (established-SHR, 18 weeks old, weight; 300 to 375 g, 8 rats/group), the same procedures were carried out as Experiment 3 except that the period of administration of the test compound (1) was 3 weeks, and the systolic blood pressure was measured until the third week after administration.

In experiment [3] the test system is established DOCA-salt hypertensive rats. Kind of experiment: Antihypertensive activity in DOCA-salt rats in the established hypertension condition (tail-cuff method). In kind it is in vivo. How it is done:
as §1, §2
The DOCA-salt loaded rats being in the stable hypertensive condition were obtained by feeding the DOCA-salt loaded rats used in Experiment 2 with tap water instead of aqueous salt solution for 6 weeks. Using these established DOCA-salt hypertensive rats (8 rats/group), the same experiments were carried out as Experiment 3 except that the dose of the test compound (1) was 50 mg/kg/day, the period of administration was 3 weeks, and the systolic blood pressure was measured until the fourth week after administration.

In the case of `CCn1nccc1C(=O)c1ccc(OCC(=O)O)c(Cl)c1Cl` [(1), [2,3-dichloro-4-(1-ethyl-5-pyrazolylcarbonyl)phenoxy]acetic acid], the “rate of change of the blood pressure” value in the experiment on SHR [1] was “about -13%”. Moreover, the “increase of blood pressure as compared with control group” value in the experiment with DOCA-salt rats (50 mg/kg/day orally for 4 weeks, result in words) was “inhibited significantly from the second week after administration”; in the experiment on SHR [2] (100 mg/kg/day orally for 4 weeks, result in words) it was “inhibited significantly from the first week after administration”. In addition, the Systolic blood pressure in the experiment with DOCA-salt rats (day 0) is given as 121.6 mmHg; with DOCA-salt rats (day 7), 140.3 mmHg; in the experiment on DOCA-salt rats (day 14), 165.0* mmHg; in the experiment on DOCA-salt rats (day 21), 182.0* mmHg; with DOCA-salt rats (day 28), 193.3* mmHg; in the experiment on SHR [2] (day 0, 100 mg/kg/day orally once a day for 4 weeks), 131.2 mmHg. Further, the Systolic blood pressure with SHR [2] (day 7, 100 mg/kg/day orally once a day for 4 weeks) is 141.0** mmHg; with SHR [2] (day 14, 100 mg/kg/day orally once a day for 4 weeks) it was 161.9** mmHg; in the experiment with SHR [2] (day 21, 100 mg/kg/day orally once a day for 4 weeks), 175.4** mmHg; in the experiment with SHR [2] (day 28, 100 mg/kg/day orally once a day for 4 weeks), 185.2** mmHg; in the experiment on SHR [2] (day 35 (one week after the 4-week dosing), 100 mg/kg/day orally), 198.4** mmHg; with established-SHR (day 0), 207.3 mmHg. The Systolic blood pressure in the experiment on established-SHR (day 7) is listed as 189.6* mmHg; with established-SHR (day 14), 201.8* mmHg; in the experiment on established-SHR (day 21), 198.6* mmHg; in experiment [3] (day 0, 50 mg/kg/day orally once a day for 3 weeks), 171.1 mmHg; in experiment [3] (day 7, 50 mg/kg/day orally once a day for 3 weeks), 167.4 mmHg; in experiment [3] (day 14, 50 mg/kg/day orally once a day for 3 weeks), 168.1* mmHg. Moreover, the Systolic blood pressure in experiment [3] (day 28 (one week after the 3-week dosing), 50 mg/kg/day orally) is 170.7* mmHg. The “blood pressure in comparison with control group” value in the experiment with established-SHR (100 mg/kg/day orally for 3 weeks, result in words) is “decreased significantly from the first week after administration”; in experiment [3] (50 mg/kg/day orally for 3 weeks, result in words) it was “decreased significantly from the second week after administration”.

As to `CCn1nccc1C(=O)c1ccc(OCC(=O)O)c(Cl)c1Cl` [[2,3-dichloro-4(1-ethyl-5-pyrazolylcarbonyl)phenoxy]acetic acid], the “decrease of the systolic blood pressure” value in the experiment with SHR [1] is “about 13%”.

For the compound `CCOCn1nccc1C(=O)c1ccc(OCC(=O)O)c(Cl)c1Cl` [[2,3-dichloro-4-(1-ethoxymethyl-5-pyrazolylcarbonyl)phenoxy]acetic acid], the “decrease of the systolic blood pressure” value in the experiment with SHR [1] is reported as “about 13%”.

As for `CCOCn1nccc1C(=O)c1ccc(OCC(=O)O)c(Cl)c1Cl` [(2), [2,3-dichloro-4-(1-ethoxymethyl-5-pyrazolylcarbonyl)phenoxy]acetic acid], the “rate of change of the blood pressure” value in the experiment on SHR [1] was “about -13%”.
